Series [1] in a line: In vivo release kinetics of rapamycin and mycophenolic acid, porcine pharmacokinetics studies. The text has this: The topcoat is two hundred micro grams.
The subject of the next series is tumor cell lines. Particulars: cited from earlier work.
The subject of series [2] is human coronary artery smooth muscle cell proliferation. Briefly: In vitro cell culture study of coronary artery smooth muscle cell proliferation. It is filed as cell-based. The text has this:
FIG. 51 is a graph of the inhibition of coronary artery smooth muscle cells by trichostatin A in a cell culture study.

The subject of series [3] is human coronary artery smooth muscle cells. Briefly: Anti-proliferative activity in non-synchronized cultured human coronary artery smooth muscle cells stimulated with two percent fetal bovine serum. The series is classed as cell-based. Conditions: for effect on the anti-proliferative activity of rapamycin (shift of the rapamycin dose response curve): added to cells treated with rapamycin. The text has this:
The multiple curves represent various concentrations of mycophenolic acid ranging from zero to one thousand nanomolar concentrations.
FIG. 58 illustrates, in graphical format, the anti-proliferative activity of cladribine in non-synchronized cultured human coronary artery smooth muscle cells stimulated with two percent fetal bovine serum.
The multiple curves represent various concentrations of cladribine ranging from zero to nine hundred nanomolar concentrations.

A short description of series [4]: In vivo release kinetics of rapamycin and cladribine, porcine pharmacokinetics studies. Further details: species or system Yorkshire pigs. Particulars: Bx Velocity stents, FIG. 63 compared to FIG. 62.
Source text: (§1) The basecoat is applied to Bx Velocity® stents and implanted into Yorkshire pigs.
as §1

Series [5] relates to human smooth muscle cells. In words: Cladribine Example: PDGF-stimulated proliferation, cell count on day six, smooth muscle cells. The series is classed as cell-based. Particulars: from the IC50 values. As for the experimental part:
To assess the ability of cladribine to prevent cell proliferation, human smooth muscle or endothelial cells (Clonetics, Walkersville, Md.) were seeded at a density of 2000 cells/cm^2 (approximately 3600 cells/well) into each well of 12-well plates and cultured with 1.5 ml of growth medium containing five percent fetal calf serum (FCS). After twenty-four hours, the growth medium was changed and fresh medium containing 10 ng/ml platelet-derived growth factor AB (PDGF AB; LIFE Technologies), as well as various concentrations of cladribine (0.001-10,000 nM) were added with triplicate wells. Medium was replaced with fresh cladribine-containing medium after three days. On day six, cells were detached by trypsinization to yield a cell suspension, lightly centrifuged to pellet and then counted manually using a Neubauer hemocytometer system. Cell viability was assessed by trypan blue exclusion.

Here are results for 4 compounds from US7806924B2 (Cordis Corporation, priority 2004, dated 2010).

Consider `CO[C@H]1C[C@@H]2CC[C@@H](C)[C@@](O)(O2)C(=O)C(=O)N2CCCC[C@H]2C(=O)O[C@H]([C@H](C)C[C@@H]2CC[C@@H](O)[C@H](OC)C2)CC(=O)[C@H](C)/C=C(\C)[C@@H](O)[C@@H](OC)C(=O)[C@H](C)C[C@H](C)/C=C/C=C/C=C/1C` [Rapamycin, rapamycin], for which, in series [1] (six hundred micro grams basecoat, two hundred micro grams topcoat), the “in vivo release rate from PVDF basecoat with PVDF topcoat” value is reported as “slower release rate than that of mycophenolic acid”.

With `CC(/C=C/C(=O)NO)=C\[C@@H](C)C(=O)c1ccc(N(C)C)cc1` [trichostatin A], the “anti-proliferative IC50's” value in the series with tumor cell lines was “low nM range”. Also, the “inhibition of human coronary artery smooth muscle cell proliferation” value in series [2] is “completely inhibit”. For the same compound, in series [2] (read-out: anti-proliferative IC50), the IC50 was about 6 nM.

Turning to `Nc1nc(Cl)nc2c1ncn2[C@H]1C[C@H](O)[C@@H](CO)O1` [cladribine, 2-chlorodeoxyadenosine], the “inhibition of human coronary artery smooth muscle cell proliferation” value in series [3] (FIG. 58) was “completely inhibits”. The “effect on the anti-proliferative activity of rapamycin (shift of the rapamycin dose response curve)” value in series [3] is recorded as “potentiate”. Further, the “in vivo elution from EVA/BMA basecoat with BMA topcoat” value in series [4] is reported as “elutes more rapidly than rapamycin”. Also, the “potency as inhibitor of smooth muscle cells relative to endothelial cells” value in series [5] was “approximately twice”.

`COc1c(C)c2c(c(O)c1C/C=C(\C)CCC(=O)O)C(=O)OC2` [mycophenolic acid]: the “effect on the anti-proliferative activity of rapamycin (shift of the rapamycin dose response curve)” value in series [3] is listed as “potentiates”. The “in vivo release from EVA/BMA basecoat (with or without BMA topcoat)” value in series [1] (180 micro grams rapamycin, 180 micro grams mycophenolic acid, 240 micro grams EVA/BMA) is reported as “elutes more completely over a shorter duration than the rapamycin”.
